In paper PMC10979456, “Trinucleotide mRNA Cap Analogue N6-Benzylated at the Site of Posttranscriptional ^m6Am Mark Facilitates mRNA Purification and Confers Superior Translational Properties In Vitro and In Vivo” (Journal of the American Chemical Society, 2024):

Experiments:
Test in all cases: time-synchronized fluorescence quenching titration
Type in all cases: binding
heIF4E3 = biological target: T1, heIF4E3 (Homo sapiens, UniProt Q8N5X7)
T1 construct: gene EIF4E3; not described in main text (experimental details in supplement)
T1 sequence (Q8N5X7 whole entry): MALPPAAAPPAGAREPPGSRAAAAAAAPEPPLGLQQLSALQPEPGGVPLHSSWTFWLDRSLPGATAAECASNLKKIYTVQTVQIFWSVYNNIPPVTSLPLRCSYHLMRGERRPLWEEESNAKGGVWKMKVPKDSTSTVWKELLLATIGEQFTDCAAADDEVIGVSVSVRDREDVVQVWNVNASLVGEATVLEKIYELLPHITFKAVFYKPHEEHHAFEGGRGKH
Excerpt: time-synchronized fluorescence quenching titration on heIF4E3

h4EHP (eIF4E2) = biological target: T2, h4EHP (eIF4E2) (Homo sapiens, UniProt O60573)
T2 construct: not described in main text (experimental details in supplement)
T2 sequence (O60573 1-245): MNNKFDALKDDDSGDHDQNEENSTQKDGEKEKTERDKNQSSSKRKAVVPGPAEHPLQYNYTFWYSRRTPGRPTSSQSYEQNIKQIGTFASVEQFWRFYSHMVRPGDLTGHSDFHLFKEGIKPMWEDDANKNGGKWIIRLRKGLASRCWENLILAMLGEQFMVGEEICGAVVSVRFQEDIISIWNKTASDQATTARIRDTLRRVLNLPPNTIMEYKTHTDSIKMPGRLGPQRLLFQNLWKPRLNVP
Excerpt: time-synchronized fluorescence quenching titration on h4EHP (eIF4E2)

heIF4E1a = biological target: T3, heIF4E1a (Homo sapiens, UniProt P06730)
T3 construct: gene EIF4E; not described in main text (experimental details in supplement)
T3 sequence (P06730 2-217): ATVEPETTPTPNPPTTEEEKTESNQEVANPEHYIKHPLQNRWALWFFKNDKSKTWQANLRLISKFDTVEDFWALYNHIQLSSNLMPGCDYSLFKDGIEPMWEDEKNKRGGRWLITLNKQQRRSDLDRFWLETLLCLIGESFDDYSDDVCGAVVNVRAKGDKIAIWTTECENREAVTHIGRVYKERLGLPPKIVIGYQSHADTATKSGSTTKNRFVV

Kd (heIF4E3) [nM] | Kd (h4EHP (eIF4E2)) [nM] | Kd (heIF4E1a) [nM] | Structure (SMILES)
140 ± 4 | 1340 ± 32 | 46.4 ± 0.6 | CNc1ncnc2c1ncn2[C@@H]1O[C@H](COP(=O)(O)OP(=O)(O)OP(=O)(O)OC[C@H]2O[C@@H](n3c[n+](C)c4c(=O)[nH]c(N)nc43)[C@H](O)[C@@H]2O)[C@@H](OP(=O)(O)OC[C@H]2O[C@@H](n3cnc4c(=O)[nH]c(N)nc43)[C@H](O)[C@@H]2O)[C@H]1OC [m^7Gppp^m6AmpG]
95.7 ± 1.7 | 687 ± 10 | 23.9 ± 0.5 | CO[C@@H]1[C@H](OP(=O)(O)OC[C@H]2O[C@@H](n3cnc4c(=O)[nH]c(N)nc43)[C@H](O)[C@@H]2O)[C@@H](COP(=O)(O)OP(=O)(O)OP(=O)(O)OC[C@H]2O[C@@H](n3c[n+](C)c4c(=O)[nH]c(N)nc43)[C@H](O)[C@@H]2O)O[C@H]1n1cnc2c(NCc3ccccc3)ncnc21 [compound 1, m^7Gppp^Bn6AmpG]
153 ± 3 | 1020 ± 19 | 42.1 ± 0.7 | CO[C@@H]1[C@H](OP(=O)(O)OC[C@H]2O[C@@H](n3cnc4c(=O)[nH]c(N)nc43)[C@H](O)[C@@H]2O)[C@@H](COP(=O)(O)OP(=O)(O)OP(=O)(O)OC[C@H]2O[C@@H](n3c[n+](C)c4c(=O)[nH]c(N)nc43)[C@H](O)[C@@H]2O)O[C@H]1n1cnc2c(N)ncnc21 [m^7GpppAmpG]
129 ± 14 | 611 ± 19 | – | C[n+]1cn([C@@H]2O[C@H](COP(=O)(O)OP(=O)(O)OP(=O)(O)O)[C@@H](O)[C@H]2O)c2nc(N)[nH]c(=O)c21 [m^7GTP]
